Assay results as given in US20260256925A1, “INDAZOLE DERIVATIVES AS ESTROGEN RECEPTOR DEGRADERS” (REGENTS OF THE UNIVERSITY OF MICHIGAN, priority 2022, published 2026).

Key:
CRBN/DDB1 = target: T1, CRBN/DDB1 (Homo sapiens, UniProt Q96SW2); type: binding; settings: HTRF, Cy5-labeled Thalidomide probe
T1 construct: purchased Wuxi RP210521GA
Description: The binding potency was determined using HTRF assay technology (Perkin Elmer). Compounds were serially diluted in DMSO and 0.2 μL volume was transferred to white 384-well plate.

ER [1] = target: T2, ER (Homo sapiens, UniProt P03372); experiment: In-cell Western (ICW) ER degradation assay in MCF-7 cells; type: cell-based; settings: for DC50: read-out: ER MCF7 ICW DC50
T2 construct: endogenous in cells; probably T47D or MCF-7
T2 sequence (P03372 1-595): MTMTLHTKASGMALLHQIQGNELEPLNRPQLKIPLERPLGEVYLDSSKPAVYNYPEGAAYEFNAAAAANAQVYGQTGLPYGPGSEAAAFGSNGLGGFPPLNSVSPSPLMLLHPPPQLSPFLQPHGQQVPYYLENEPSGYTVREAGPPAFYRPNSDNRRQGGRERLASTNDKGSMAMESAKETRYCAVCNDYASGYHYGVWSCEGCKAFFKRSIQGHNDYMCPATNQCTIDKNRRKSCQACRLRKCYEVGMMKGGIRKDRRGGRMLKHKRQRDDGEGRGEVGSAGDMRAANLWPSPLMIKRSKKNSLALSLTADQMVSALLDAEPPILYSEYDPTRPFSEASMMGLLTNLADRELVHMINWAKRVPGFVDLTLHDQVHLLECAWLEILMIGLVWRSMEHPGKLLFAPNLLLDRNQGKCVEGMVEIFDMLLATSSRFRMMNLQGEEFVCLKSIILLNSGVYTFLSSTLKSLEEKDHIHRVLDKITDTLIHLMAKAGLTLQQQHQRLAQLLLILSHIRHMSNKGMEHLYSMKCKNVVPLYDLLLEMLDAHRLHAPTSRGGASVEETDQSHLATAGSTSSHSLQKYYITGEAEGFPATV
Description: (§1) ERa degradative activity of compounds can be assessed in MCF-7 and T47D Cells. MCF-7 and T47D cell are seeded and are subsequently treated with the compounds at certain concentrations (e.g., 0.02 to 300 nM). DMSO can be used as vehicle control. Cells are fixed and are blocked with Intercept (PBS) Blocking Buffer (e.g., Li—COR, Odyssey Blocking Buffer), and are stained with ER (e.g., 1:500, Cell signaling) primary antibody for overnight at cold room. Secondary Antibody (e.g., IRDye 800CW Goat anti-Rabbit IgG) and CellTag 700 Stain are added in Intercept (PBS) Blocking Buffer. Finally, cell plate is placed in incubator to dry. Image and signal are captured on Odyssey® DLx Imaging System.
(§2) In-cell Western (ICW) assays in MCF-7 and T47D cell lines.
(§3) Procedures for ICW assays
(§4) In vitro Assay: MCF-7 and T47D ICW assay
(§5) Day 3: After 16 hrs of compounds treatment, cells were fixed by 4% PFA and permeabilized with elution buffer (0.1% Triton X-100 in 1% PBS Solution). Subsequently, cells were blocked with Intercept (PBS) Blocking Buffer (Li—COR, Odyssey Blocking Buffer), and were stained with ER (1:500, Cell signaling) primary antibody for overnight at cold room.
(§6) Day 4: Remove the buffer, add IRDye 800CW Goat anti-Rabbit IgG Secondary Antibody (1:2000) and CellTag 700 Stain (1:500) in Intercept (PBS) Blocking Buffer. Finally, cell plate is placed in incubator to dry. Image and signal were captured on Odyssey® DLx Imaging System.

ER [2] = target: T2, ER; experiment: In-cell Western (ICW) ER degradation assay in T47D cells; type: cell-based; settings: T47D cells, 16 hrs; for Dmax: T47D, read-out: ER T47D ICW Dmax (%)
Description: as §1, §2, §3, §4, §5, §6

ERα_LBD (GST) = target: T3, ERα_LBD (GST) (Homo sapiens, UniProt P03372); experiment: IC50 measurements for binding to ERα_LBD (GST), LanthaScreen TR-FRET ERα competitive binding assay; settings: Fluormone ES2 Green tracer, 60 min, read-out: ERα HTRF IC50
T3 construct: ERα_LBD (GST) protein: 4 nM; purchased ThermoFisher A15887
T3 sequence (P03372 311-547 limits assumed): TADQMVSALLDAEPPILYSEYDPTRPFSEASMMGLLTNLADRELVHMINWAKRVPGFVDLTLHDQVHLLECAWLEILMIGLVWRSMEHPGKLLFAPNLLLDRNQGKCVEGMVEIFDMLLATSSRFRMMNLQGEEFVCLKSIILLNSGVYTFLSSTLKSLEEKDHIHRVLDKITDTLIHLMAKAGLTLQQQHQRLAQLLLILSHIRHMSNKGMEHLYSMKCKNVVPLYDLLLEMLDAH
Description: In vitro Assay: IC50 Measurements for binding to ERα_LBD (GST)·
Final assay conditions: • 1. ERα_LBD (GST) protein: 4 nM • 2. Tb Anti-GST: 2 nM • 3. Fluormone ES2 Green tracer: 3 nM • 4. Incubation time: 60 min • 5. DMSO: 1% • 6. Assay buffer: Adding 1M DTT to Nuclear receptor Buffer K for final 5 mM DTT. • 7. ZPE: 1% DMSO • 8. HPE: 1 μM ARV_471 • 9. LanthaScreen® TR-FRET ERα Competitive Binding Assay (ThermoFisher, #A^15887)
100× Compound preparation: • 1) Cherry pick 2 μL 10 mM compound stock to column 1 of a 384 intermediate plate • 2) Add 18 μL DMSO to column 1 to dilute compound to 1 mM. • 3) Transfer 10 μL 1 mM compound to column 1 of a LDV plate. • 2) Add 6 μl DMSO to column 2-10 of the LDV plate. • 3) Compounds undergo 3-fold serial dilution (3 μL+6 μL) in DMSO. • 4) Transfer 120 nL compound solution to assay plate.
Prepare complete nuclear receptor buffer K by adding 1 M DTT to nuclear receptor buffer K for a final concentration of 5 mM DTT. Complete nuclear receptor buffer K must be prepared fresh daily. Prepare 2× protein solution using complete nuclear receptor buffer K containing 8 nM ERα_LBD (GST) and 4 nM Tb Anti-GST. Then, prepare 2× Fluormone ES2 Green tracer (6 nM) using complete nuclear receptor buffer K. Add 6 μL 2× Fluormone ES2 green tracer into a compound plate (PerkinElmer 6008289) by dragonfly with one-tips-addition. Subsequently, add 6 μL 2× protein solution into the plate. Briefly and gently mix the 384-well plate on a plate shaker and incubate at room temperature protected from light for 60 min. The plate is sealed with a cover to minimize evaporation. Read the plate at wavelengths of 520 nm and 495 nm. Calculate the TR-FRET ratio by dividing the emission signal at 520 nm by the emission signal at 495 nm. Generate a binding curve by plotting the emission ratio vs. the log [ligand]. To determine the IC50 value, fit the data using XL-fit for a sigmoidal dose-response.

[3] = MCF7, MCF-7 cells, 16 hrs, read-out: ER MCF7 ICW Dmax (%)

T1 sequence (Q96SW2 whole entry): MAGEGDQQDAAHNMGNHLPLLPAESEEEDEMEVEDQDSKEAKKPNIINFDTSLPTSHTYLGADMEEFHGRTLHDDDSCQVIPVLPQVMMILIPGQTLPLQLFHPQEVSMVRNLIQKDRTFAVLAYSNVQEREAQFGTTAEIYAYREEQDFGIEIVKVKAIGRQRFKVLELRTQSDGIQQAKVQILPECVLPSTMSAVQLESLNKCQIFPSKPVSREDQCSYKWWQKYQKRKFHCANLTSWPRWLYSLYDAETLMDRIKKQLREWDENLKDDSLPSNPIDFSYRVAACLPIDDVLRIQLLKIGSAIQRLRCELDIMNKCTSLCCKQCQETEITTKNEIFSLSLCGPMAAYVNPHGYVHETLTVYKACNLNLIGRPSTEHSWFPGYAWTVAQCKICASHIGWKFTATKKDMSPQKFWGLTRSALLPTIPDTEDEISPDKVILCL
T1 sequence (Q16531 whole entry partner): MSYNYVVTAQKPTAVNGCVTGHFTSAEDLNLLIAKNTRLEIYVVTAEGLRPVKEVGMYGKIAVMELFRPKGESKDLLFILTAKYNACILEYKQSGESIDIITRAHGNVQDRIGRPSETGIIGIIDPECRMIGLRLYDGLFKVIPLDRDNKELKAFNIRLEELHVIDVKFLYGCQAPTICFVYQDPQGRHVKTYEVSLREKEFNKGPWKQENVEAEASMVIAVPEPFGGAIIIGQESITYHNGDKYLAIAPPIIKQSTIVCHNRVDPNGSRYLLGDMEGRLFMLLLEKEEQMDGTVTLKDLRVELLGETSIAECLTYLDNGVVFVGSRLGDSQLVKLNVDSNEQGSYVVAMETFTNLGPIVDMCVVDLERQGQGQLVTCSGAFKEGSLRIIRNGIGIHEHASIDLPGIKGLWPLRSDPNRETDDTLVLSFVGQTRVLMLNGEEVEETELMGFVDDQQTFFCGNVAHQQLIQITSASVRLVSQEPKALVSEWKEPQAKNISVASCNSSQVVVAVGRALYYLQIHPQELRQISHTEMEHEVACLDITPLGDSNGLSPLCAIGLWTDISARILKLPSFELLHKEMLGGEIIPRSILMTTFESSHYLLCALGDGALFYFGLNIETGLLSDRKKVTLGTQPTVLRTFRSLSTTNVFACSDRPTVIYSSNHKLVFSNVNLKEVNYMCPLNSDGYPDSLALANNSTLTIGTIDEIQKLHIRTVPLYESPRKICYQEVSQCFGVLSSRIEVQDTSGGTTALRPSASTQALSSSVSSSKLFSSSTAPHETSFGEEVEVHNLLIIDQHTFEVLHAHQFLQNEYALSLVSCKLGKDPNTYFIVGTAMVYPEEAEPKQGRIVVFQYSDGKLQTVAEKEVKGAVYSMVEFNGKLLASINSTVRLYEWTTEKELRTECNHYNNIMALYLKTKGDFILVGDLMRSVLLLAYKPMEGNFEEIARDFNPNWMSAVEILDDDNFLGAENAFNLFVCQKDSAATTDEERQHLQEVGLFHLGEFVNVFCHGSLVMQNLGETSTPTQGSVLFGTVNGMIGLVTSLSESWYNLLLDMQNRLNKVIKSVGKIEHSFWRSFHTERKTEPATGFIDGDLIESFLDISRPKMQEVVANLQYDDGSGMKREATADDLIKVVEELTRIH

| Compound | IC50 (CRBN/DDB1) [nM] | Dmax (ER [1]; [3]) [%] | DC50 (ER [1]; MCF-7 cells, 16 hrs) [nM] | DC50 (ER [2]) [nM] | Dmax (ER [2]) [%] | ER MCF7 ICW Dmax (%) (ER [1]; MCF-7 cells, 16 hrs) | ER T47D ICW Dmax (%) (ER [2]) | IC50 (ERα_LBD (GST)) [nM] | Dmax (ER [1]; MCF7, read-out: ER MCF7 ICW Dmax (%)) [%] |
| --- | --- | --- | --- | --- | --- | --- | --- | --- | --- |
| C[C@@H]1Cc2c(ccc3[nH]ncc23)[C@@H](c2c(F)cc(N3CCC(CN4CCN5c6ccc7c(c6OC[C@@H]5C4)CN(C4CCC(=O)NC4=O)C7=O)CC3)cc2F)N1CC(F)F (stereo partly drawn) [Compound A2, 3-((S)-7-((1-(4-((6S,8R)-7-(2,2-difluoroethyl)-8-methyl-6,7,8,9-tetrahydro-3H-pyrazolo[4,3-f]isoquinolin-6-yl)-3,5-difluorophenyl)piperidin-4-yl)methyl)-1-oxo-1,3,5,5a,6,7,8,9-octahydro-2H-pyrazino[1′,2′:4,5][1,4]oxazino[2,3-e]isoindol-2-yl)piperidine-2,6-dione] | 50 to 500 | 50 to 75 | < 1 | < 1 | 50 to 75 |  |  |  |  |
| C[C@@H]1Cc2c(ccc3[nH]ncc23)[C@@H](c2ccc(N3CCC4(CC3)CC(CN3CCN5c6cc7c(cc6OC[C@H]5C3)C(=O)N([C@@H]3CCC(=O)NC3=O)C7)C4)cn2)N1CC1(F)CC1 [Compound A14, (R)-3-((R)-3-((7-(6-((6S,8R)-7-((1-fluorocyclopropyl)methyl)-8-methyl-6,7,8,9-tetrahydro-3H-pyrazolo[4,3-f]isoquinolin-6-yl)pyridin-3-yl)-7-azaspiro[3.5]nonan-2-yl)methyl)-8-oxo-1,2,3,4,4a,5,8,10-octahydro-9H-pyrazino[1′,2′:4,5][1,4]oxazino[2,3-f]isoindol-9-yl)piperidine-2,6-dione] | 50 to 500 | 50 to 75 | < 1 | < 1 | > 75 |  |  |  |  |
| C[C@H]1Cc2c(ccc3[nH]ncc23)[C@@H](c2ccc(N3CCC(CN4CCN5c6cc7c(cc6OC[C@H]5C4)C(=O)N([C@@H]4CCC(=O)NC4=O)C7)CC3)nc2)N1CC(F)(F)F (stereo in doubt) [Compound A20, (R)-3-((R)-3-((1-(5-((6S,8S)-8-methyl-7-(2,2,2-trifluoroethyl)-6,7,8,9-tetrahydro-3H-pyrazolo[4,3-f]isoquinolin-6-yl)pyridin-2-yl)piperidin-4-yl)methyl)-8-oxo-1,2,3,4,4a,5,8,10-octahydro-9H-pyrazino[1′,2′:4,5][1,4]oxazino[2,3-f]isoindol-9-yl)piperidine-2,6-dione] | < 50 | 25 to 50 | 10 to 100 | 10 to 100 | 50 to 75 |  |  |  |  |
| C[C@H]1Cc2c(ccc3[nH]ncc23)[C@H](c2ccc(N3CCC4(CC3)CC(CN3CCN(c5ccc(C(=O)NC6CCC(=O)NC6=O)nc5)CC3)C4)cn2)N1CC(F)(F)F (stereo in doubt) [Compound A9, N-(2,6-dioxopiperidin-3-yl)-5-(4-((7-(6-((6R,8S)-8-methyl-7-(2,2,2-trifluoroethyl)-6,7,8,9-tetrahydro-3H-pyrazolo[4,3-f]isoquinolin-6-yl)pyridin-3-yl)-7-azaspiro[3.5]nonan-2-yl)methyl)piperazin-1-yl)picolinamide] | 50 to 500 | 50 to 75 | < 1 | < 1 | 50 to 75 |  |  |  |  |
| C[C@H]1Cc2c(ccc3[nH]ncc23)[C@H](c2ccc(N3CCC4(CC3)CC(CN3CCC(c5ccc(NC6CCC(=O)NC6=O)cc5)CC3)C4)cn2)N1CC(F)(F)F (stereo in doubt) [Compound A10, 3-((4-(1-((7-(6-((6R,8S)-8-methyl-7-(2,2,2-trifluoroethyl)-6,7,8,9-tetrahydro-3H-pyrazolo[4,3-f]isoquinolin-6-yl)pyridin-3-yl)-7-azaspiro[3.5]nonan-2-yl)methyl)piperidin-4-yl)phenyl)amino)piperidine-2,6-dione] | 50 to 500 | 50 to 75 | < 1 | < 1 | 50 to 75 |  |  |  |  |
| (S)-3-((R)-7-((1-(5-((6S,8R)-8-methyl-7- (2,2,2-trifluoroethyl)-6,7,8,9-tetrahydro-3H- pyrazolo[4,3-f]isoquinolin-6-yl)pyridin-2- yl)piperidin-4-yl)methyl)-1-oxo- 1,3,5,5a,6,7,8,9-octahydro-2H- pyrazino[1′,2′:4,5][1,4]oxazino[2,3-c]isoindol- 2-yl)piperidine-2,6-dione [Compound A23] | 500 to 5000 |  | 1 to 10 | 1 to 10 |  | B (“B”: >50% and <75%) | B (“B”: >50% and <75%) |  |  |
| C[C@@H]1Cc2c(ccc3[nH]ncc23)[C@@H](c2ccc(N3CC4(CCC(CN5CCN6c7ccc8c(c7OC[C@H]6C5)CN([C@H]5CCC(=O)NC5=O)C8=O)CC4)C3)cn2)N1CC1(F)CC1 [Compound A11, (S)-3-((R)-7-((2-(6-((6S,8R)-7-((1-fluorocyclopropyl)methyl)-8-methyl-6,7,8,9-tetrahydro-3H-pyrazolo[4,3-f]isoquinolin-6-yl)pyridin-3-yl)-2-azaspiro[3.5]nonan-7-yl)methyl)-1-oxo-1,3,5,5a,6,7,8,9-octahydro-2H-pyrazino[1′,2′: 4,5][1,4]oxazino[2,3-e]isoindol-2-yl)piperidine-2,6-dione] |  | > 75 | < 1 | < 1 | > 75 |  |  | ≥ 10 |  |
| C[C@@H]1Cc2c(ccc3[nH]ncc23)[C@@H](c2ccc(N3CC4(CCC(CN5CCN6c7ccc8c(c7OC[C@H]6C5)CN(C5CCC(=O)NC5=O)C8=O)CC4)C3)cn2)N1CC1(F)CC1 (stereo partly drawn) [Compound A16, (S)-3-((R)-7-((2-(6-((6S,8R)-7-((1-fluorocyclopropyl)methyl)-8-methyl-6,7,8,9-tetrahydro-3H-pyrazolo[4,3-f]isoquinolin-6-yl)pyridin-3-yl)-2-azaspiro[3.5]nonan-7-yl)methyl)-1-oxo-1,3,5,5a,6,7,8,9-octahydro-2H-pyrazino[1′,2′: 4,5][1,4]oxazino[2,3-e]isoindol-2-yl)piperidine-2,6-dione] |  |  | < 1 | < 1 | > 75 |  |  | < 10 | > 75 |
